ChEMBL document CHEMBL5465560, “Selectivity Literature for EUbOPEN Chemogenomic Library” (2024)

Tests used:
[1] = target: Dual specificity protein kinase CLK3 (Homo sapiens, UniProt P49761); test: Selectivity interaction (Kinase panel (KiNativ target engagement assay in Jurkat cells)) EUB0001635a CLK3; format: cell-based; conditions: Selectivity number of off-targets 0.0, Selectivity number of targets 233.0, Source Knowledge https://www.sciencedirect.com/science/article/pii/S2451945619300674?via%3Dihub, at 1 µM
Chain of Dual specificity protein kinase CLK3 (P49761 whole entry, looked up): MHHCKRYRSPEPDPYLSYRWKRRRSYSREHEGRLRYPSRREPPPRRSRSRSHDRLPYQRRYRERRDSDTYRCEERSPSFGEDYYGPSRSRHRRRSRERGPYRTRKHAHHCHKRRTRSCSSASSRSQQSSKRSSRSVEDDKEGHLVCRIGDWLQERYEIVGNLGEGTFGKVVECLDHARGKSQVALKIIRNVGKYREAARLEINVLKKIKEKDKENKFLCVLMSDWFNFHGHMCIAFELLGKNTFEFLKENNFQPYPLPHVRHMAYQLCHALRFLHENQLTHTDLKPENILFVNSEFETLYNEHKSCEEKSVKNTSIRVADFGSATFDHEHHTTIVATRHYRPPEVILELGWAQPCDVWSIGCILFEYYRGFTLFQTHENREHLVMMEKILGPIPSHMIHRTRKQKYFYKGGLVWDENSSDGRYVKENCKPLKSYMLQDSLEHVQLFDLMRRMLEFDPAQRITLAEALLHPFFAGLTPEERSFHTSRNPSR

[2] = target: Vascular endothelial growth factor receptor 2 (Homo sapiens, UniProt P35968); test: Selectivity interaction (KinomeScan (DiscoverX)) EUB0000229b KDR; conditions: at 10 µM
Chain of Vascular endothelial growth factor receptor 2 (P35968 whole entry): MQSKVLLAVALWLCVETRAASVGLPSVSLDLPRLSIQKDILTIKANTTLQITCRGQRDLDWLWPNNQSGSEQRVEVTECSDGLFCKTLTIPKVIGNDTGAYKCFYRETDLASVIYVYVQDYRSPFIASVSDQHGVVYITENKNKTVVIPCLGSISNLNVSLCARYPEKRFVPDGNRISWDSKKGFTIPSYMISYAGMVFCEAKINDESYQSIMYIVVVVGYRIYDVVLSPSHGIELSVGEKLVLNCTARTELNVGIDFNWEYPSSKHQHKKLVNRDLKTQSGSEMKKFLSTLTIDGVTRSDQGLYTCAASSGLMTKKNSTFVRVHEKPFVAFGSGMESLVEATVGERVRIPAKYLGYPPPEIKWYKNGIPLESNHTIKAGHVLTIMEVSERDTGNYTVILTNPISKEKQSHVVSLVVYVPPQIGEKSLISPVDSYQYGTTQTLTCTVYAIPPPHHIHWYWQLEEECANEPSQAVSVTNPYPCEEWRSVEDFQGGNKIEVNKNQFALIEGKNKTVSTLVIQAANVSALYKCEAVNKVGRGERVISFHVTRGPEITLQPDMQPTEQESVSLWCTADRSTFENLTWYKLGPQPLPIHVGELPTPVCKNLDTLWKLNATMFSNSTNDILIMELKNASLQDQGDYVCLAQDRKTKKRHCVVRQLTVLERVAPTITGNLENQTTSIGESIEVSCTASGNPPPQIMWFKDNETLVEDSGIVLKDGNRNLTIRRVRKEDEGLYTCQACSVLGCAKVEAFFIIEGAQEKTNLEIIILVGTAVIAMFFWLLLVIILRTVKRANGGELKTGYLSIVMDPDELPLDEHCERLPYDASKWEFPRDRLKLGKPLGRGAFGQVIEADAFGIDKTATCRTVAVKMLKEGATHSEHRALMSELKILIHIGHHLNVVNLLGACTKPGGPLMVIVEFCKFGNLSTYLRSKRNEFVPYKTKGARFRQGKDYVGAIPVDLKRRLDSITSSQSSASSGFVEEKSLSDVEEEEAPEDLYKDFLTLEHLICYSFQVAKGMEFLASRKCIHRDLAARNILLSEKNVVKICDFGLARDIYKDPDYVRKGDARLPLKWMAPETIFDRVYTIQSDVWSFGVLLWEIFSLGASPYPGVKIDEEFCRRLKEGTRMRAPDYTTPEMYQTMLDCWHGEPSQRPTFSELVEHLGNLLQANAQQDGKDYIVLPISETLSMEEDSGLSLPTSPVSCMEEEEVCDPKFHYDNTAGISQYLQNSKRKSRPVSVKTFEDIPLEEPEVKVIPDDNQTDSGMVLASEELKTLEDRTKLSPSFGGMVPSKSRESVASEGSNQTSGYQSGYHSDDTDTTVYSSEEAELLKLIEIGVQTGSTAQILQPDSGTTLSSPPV

[3] = target: Serine/threonine-protein kinase PAK 1 (Homo sapiens) (UniProt Q13153); test: Selectivity interaction (KinomeScan (DiscoverX)) EUB0000695a PAK1; conditions: at 100 nM
Chain of Serine/threonine-protein kinase PAK 1 (Homo sapiens) (Q13153 whole entry, canonical isoform): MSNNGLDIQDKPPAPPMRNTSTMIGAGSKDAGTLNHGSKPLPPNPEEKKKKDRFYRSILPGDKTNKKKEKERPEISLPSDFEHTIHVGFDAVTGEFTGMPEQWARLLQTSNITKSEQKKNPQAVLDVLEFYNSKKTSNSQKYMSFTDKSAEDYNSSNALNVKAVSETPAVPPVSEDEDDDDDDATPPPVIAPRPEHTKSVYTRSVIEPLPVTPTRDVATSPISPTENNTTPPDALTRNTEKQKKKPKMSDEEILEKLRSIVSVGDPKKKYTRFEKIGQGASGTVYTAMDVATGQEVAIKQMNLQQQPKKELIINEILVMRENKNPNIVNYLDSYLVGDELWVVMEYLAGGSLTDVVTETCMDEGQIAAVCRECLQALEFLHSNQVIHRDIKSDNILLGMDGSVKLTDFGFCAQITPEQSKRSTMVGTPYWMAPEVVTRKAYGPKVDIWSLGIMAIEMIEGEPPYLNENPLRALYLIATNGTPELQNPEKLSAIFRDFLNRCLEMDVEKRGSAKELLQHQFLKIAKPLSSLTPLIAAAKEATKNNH

[4] = target: Phosphatidylinositol 4,5-bisphosphate 3-kinase catalytic subunit gamma isoform (Homo sapiens) (UniProt P48736); test: Selectivity interaction (KinomeScan (DiscoverX)) EUB0001079a PIK3CG; conditions: at 1 µM
Chain of Phosphatidylinositol 4,5-bisphosphate 3-kinase catalytic subunit gamma isoform (Homo sapiens) (P48736 whole entry, looked up, canonical isoform): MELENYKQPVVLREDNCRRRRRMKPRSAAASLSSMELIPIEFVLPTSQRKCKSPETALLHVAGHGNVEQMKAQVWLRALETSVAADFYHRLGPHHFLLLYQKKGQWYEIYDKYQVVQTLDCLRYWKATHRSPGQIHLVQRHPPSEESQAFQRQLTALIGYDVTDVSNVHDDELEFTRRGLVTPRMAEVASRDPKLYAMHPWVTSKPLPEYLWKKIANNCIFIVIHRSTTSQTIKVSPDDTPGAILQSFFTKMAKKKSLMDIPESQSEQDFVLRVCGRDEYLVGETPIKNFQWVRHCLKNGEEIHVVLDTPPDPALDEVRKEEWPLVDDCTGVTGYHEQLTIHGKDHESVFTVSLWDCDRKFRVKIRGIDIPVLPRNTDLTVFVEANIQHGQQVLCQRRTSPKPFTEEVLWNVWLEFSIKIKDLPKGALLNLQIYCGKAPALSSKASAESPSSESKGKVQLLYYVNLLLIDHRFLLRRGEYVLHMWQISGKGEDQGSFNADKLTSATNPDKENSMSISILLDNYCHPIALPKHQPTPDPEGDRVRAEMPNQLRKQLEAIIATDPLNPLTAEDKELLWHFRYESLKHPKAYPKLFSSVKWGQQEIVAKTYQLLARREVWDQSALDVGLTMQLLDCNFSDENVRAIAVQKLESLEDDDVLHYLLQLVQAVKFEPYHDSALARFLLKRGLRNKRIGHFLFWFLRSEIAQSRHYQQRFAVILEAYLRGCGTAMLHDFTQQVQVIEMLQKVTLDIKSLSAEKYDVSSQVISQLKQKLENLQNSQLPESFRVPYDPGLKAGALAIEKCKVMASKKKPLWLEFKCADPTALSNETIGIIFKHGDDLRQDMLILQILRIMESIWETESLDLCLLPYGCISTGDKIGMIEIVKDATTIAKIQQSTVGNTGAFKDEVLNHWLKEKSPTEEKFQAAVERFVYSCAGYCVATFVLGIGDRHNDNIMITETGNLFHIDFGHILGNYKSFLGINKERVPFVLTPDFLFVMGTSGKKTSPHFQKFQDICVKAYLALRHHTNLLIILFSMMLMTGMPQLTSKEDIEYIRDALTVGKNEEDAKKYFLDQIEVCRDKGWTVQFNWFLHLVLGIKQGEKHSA

[5] = target: T1, Homeodomain-interacting protein kinase 4 (Homo sapiens) (UniProt Q8NE63); conditions: at 10 µM
T1 sequence (whole entry): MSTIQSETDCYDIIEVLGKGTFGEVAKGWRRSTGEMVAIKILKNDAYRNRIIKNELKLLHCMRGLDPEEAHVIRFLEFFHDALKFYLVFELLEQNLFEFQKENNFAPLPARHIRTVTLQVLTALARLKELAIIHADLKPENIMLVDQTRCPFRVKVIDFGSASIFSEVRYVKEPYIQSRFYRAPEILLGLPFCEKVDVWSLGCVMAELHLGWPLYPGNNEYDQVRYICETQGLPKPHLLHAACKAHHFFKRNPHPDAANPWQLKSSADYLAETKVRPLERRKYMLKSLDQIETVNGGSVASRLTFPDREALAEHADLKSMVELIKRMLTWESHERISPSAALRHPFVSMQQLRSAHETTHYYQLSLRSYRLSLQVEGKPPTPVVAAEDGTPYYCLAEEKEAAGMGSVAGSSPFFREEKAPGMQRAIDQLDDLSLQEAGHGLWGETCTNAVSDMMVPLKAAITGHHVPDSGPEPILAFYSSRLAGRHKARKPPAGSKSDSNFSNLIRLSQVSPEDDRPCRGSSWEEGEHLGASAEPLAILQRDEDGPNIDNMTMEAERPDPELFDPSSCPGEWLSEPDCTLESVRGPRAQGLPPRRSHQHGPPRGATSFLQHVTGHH

[6] = target: Dual specificity mitogen-activated protein kinase kinase 1 (Homo sapiens, UniProt Q02750); test: Selectivity interaction (Enzymatic assay) EUB0001199aCl MAP2K1
Chain of Dual specificity mitogen-activated protein kinase kinase 1 (Q02750 whole entry): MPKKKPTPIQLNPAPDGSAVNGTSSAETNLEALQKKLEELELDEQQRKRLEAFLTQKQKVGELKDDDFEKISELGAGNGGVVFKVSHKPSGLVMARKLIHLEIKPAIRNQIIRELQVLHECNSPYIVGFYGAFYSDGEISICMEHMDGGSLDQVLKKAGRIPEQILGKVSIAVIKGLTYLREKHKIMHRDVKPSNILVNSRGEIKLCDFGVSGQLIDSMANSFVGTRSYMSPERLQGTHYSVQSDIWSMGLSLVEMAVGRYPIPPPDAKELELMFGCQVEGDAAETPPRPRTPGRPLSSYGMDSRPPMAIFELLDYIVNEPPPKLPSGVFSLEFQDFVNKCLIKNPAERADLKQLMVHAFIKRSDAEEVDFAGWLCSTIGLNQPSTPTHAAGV

[7] = target: T2, Serine/threonine-protein kinase DCLK3 (Homo sapiens) (UniProt Q9C098); test: Selectivity interaction (KinomeScan (DiscoverX)) EUB0000607a DCLK3; conditions: at 10 µM
T2 sequence (whole entry): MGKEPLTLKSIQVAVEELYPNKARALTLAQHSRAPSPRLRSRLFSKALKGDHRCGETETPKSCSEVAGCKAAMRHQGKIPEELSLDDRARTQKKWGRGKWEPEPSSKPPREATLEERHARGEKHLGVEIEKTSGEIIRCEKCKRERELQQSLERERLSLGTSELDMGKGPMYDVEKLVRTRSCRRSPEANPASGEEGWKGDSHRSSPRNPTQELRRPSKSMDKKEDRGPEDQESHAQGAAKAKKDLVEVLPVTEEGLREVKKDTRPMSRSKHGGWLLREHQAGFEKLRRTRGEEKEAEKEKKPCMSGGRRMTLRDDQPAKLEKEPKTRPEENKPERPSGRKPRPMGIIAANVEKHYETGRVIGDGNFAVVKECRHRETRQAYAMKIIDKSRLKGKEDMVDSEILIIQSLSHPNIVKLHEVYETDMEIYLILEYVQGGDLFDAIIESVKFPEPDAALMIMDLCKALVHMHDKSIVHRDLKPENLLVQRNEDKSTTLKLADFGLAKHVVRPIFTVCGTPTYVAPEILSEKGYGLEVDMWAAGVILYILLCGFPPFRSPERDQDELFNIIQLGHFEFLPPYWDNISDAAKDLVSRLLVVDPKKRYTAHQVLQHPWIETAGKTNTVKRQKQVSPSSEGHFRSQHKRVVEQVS

[8] = target: T3, Serine/threonine-protein kinase ULK2 (Homo sapiens) (UniProt Q8IYT8); test: Selectivity interaction (KinomeScan (DiscoverX)) EUB0000618a ULK2; conditions: at 10 µM
T3 sequence (whole entry): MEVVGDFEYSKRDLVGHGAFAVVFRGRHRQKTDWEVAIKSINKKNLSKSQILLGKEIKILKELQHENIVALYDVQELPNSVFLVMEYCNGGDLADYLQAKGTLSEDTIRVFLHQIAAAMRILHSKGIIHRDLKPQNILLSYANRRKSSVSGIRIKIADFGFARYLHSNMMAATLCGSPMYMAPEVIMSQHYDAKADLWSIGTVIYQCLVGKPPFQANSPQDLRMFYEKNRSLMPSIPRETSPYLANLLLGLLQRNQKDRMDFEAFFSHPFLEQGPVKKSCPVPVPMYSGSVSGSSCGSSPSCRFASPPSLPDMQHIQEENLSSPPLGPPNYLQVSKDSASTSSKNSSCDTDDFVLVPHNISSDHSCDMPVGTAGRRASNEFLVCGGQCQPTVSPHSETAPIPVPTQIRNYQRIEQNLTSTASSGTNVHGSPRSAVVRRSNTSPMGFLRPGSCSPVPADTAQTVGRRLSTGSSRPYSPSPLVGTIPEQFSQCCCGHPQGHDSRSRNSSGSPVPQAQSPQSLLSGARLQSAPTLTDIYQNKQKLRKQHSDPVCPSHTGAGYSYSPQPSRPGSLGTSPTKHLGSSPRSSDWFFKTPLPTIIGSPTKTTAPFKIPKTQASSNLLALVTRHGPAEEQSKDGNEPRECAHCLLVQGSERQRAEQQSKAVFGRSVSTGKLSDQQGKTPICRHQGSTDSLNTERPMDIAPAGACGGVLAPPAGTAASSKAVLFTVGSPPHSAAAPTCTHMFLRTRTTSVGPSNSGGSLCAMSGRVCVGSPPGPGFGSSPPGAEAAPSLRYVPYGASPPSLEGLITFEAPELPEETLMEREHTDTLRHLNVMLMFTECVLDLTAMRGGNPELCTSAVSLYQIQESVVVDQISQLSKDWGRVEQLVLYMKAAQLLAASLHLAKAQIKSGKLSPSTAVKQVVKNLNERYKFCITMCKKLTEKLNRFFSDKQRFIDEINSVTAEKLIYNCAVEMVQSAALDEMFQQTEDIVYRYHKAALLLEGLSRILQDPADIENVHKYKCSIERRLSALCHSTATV

[9] = target: LIM domain kinase 2 (Homo sapiens) (UniProt P53671); conditions: at 10 µM
Chain of LIM domain kinase 2 (Homo sapiens) (P53671 whole entry, looked up, the tested form may be a part): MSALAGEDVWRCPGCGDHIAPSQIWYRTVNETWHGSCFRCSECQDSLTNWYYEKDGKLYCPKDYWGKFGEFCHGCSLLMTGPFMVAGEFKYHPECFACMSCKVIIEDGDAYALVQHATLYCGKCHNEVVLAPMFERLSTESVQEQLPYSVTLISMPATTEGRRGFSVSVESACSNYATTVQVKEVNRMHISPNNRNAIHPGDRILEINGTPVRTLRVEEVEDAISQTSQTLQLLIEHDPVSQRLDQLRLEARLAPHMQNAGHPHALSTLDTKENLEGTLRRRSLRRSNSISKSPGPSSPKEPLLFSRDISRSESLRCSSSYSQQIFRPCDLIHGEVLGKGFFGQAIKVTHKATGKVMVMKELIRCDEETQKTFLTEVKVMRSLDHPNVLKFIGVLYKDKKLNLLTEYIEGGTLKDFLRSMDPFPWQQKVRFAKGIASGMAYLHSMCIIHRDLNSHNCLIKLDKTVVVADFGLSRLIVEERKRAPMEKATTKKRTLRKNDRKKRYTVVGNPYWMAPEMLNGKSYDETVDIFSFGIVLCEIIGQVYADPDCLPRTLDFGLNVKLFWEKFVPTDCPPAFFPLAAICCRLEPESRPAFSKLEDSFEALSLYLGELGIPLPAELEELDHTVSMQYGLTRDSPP

C=CC(=O)Nc1ccc(C(=O)Nc2[nH]nc3c2CN(C(=O)N[C@H](CN(C)C)c2ccccc2)C3(C)C)cc1
% of engagement [1]: 4.3%

COc1cc(N(C)c2ccnc3ccc(C(F)(F)F)cc23)cc(OC)c1OC
% binding [2]: 85%

Cc1cc(F)c(C(=O)Nc2cccc(-c3nncn3C(C)C)n2)cc1-n1cnc(C2CC2)c1
% of control [3]: 100%

Nc1cnc(N2CCc3cc(S(=O)(=O)Nc4c(F)cc(Cl)cc4F)cc(N4CCCC4=O)c32)nc1 [TP-020n]
% of control [4]: 81%

Cc1cc([C@@H](C)Nc2ccccc2C(=O)O)c2nc(N3CCOCC3)cc(=O)n2c1 [AZD-6482]
% of control [5]: 100%

CN1Cc2nccc(-c3cn(C)nc3-c3ccc(F)cc3)c2C1=O
IC50 [6]: 10.2 µM

CNC(=O)Nc1ccc(-c2nc(N3CC4CCC(C3)O4)c3cnn(C4CCC5(CC4)OCCO5)c3n2)cc1
% of control [7]: 100%

O[C@H]1CC[C@H](Nc2ncc3nc(Nc4c(F)cc(F)cc4F)n([C@H]4CCOC4)c3n2)CC1
% of control [8]: 89%

CCN(CC)CCCCNc1ncc2cc(-c3cc(OC)cc(OC)c3)c(NC(=O)NC(C)(C)C)nc2n1
% of control [9]: 100%
